Experimental data reported in ChEMBL document CHEMBL3991601, “The target landscape of clinical kinase drugs” (Science, 2017).
Active and inactive are the calls of the source. For most assays here, no stated cut-off is given here; in the data, actives have a measured Kd and inactives only a lower limit.

What was measured:
[1] = molecular target: T1, Adenine phosphoribosyltransferase (Homo sapiens, UniProt P07741)
T1 sequence (P07741 whole entry): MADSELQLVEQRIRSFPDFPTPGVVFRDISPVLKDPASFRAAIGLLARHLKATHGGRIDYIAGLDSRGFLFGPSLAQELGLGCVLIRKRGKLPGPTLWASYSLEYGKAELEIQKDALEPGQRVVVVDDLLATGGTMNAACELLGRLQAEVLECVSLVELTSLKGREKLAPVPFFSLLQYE

Aurora kinase B = Aurora kinase B (Homo sapiens, UniProt Q96GD4)
[2] = molecular target: Calcium/calmodulin-dependent protein kinase kinase 2 (Homo sapiens, UniProt Q96RR4)
Ephrin type-A receptor 4 = Ephrin type-A receptor 4 (Homo sapiens, UniProt P54764)
[3] = molecular target: Tyrosine-protein kinase Fyn (Homo sapiens, UniProt P06241)
[4] = molecular target: Mitogen-activated protein kinase kinase kinase kinase 5 (Homo sapiens, UniProt Q9Y4K4)
[5] = molecular target: Mitogen-activated protein kinase 7 (Homo sapiens, UniProt Q13164)
[6] = molecular target: T2, Serine/threonine-protein kinase Nek3 (Homo sapiens, UniProt P51956)
T2 sequence (P51956 whole entry): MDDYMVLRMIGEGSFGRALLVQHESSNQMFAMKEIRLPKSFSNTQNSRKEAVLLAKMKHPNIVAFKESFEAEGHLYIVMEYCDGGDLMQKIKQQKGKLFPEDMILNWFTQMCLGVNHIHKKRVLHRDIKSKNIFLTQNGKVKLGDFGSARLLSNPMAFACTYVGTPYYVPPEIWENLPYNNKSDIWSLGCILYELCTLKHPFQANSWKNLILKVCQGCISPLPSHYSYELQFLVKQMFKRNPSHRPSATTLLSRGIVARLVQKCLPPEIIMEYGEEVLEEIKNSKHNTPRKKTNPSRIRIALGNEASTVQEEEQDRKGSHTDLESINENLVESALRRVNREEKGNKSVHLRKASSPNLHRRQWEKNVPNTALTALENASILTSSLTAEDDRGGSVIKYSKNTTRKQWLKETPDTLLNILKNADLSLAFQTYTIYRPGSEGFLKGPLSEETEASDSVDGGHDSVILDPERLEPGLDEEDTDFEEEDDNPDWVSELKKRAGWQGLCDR

[7] = molecular target: Ribosomal protein S6 kinase alpha-1 (Homo sapiens, UniProt Q15418)
[8] = molecular target: Ribosomal protein S6 kinase alpha-4 (Homo sapiens, UniProt O75676)
[9] = molecular target: Ribosomal protein S6 kinase beta-1 (Homo sapiens, UniProt P23443)
ADP/ATP translocase 2 = molecular target: T3, ADP/ATP translocase 2 (Homo sapiens, UniProt P05141)
T3 sequence (P05141 whole entry): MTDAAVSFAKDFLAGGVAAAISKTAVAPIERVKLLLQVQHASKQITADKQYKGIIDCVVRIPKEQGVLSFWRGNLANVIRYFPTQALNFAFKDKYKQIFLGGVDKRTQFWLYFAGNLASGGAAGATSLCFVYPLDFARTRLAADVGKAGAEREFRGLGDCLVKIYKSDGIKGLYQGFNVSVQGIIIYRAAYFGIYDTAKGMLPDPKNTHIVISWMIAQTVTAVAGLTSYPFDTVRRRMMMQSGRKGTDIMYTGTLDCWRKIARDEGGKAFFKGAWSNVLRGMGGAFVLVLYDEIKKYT

[10] = molecular target: STE20-like serine/threonine-protein kinase (Homo sapiens, UniProt Q9H2G2)
[11] = molecular target: T4, Non-receptor tyrosine-protein kinase TNK1 (Homo sapiens, UniProt Q13470)
T4 sequence (Q13470 whole entry): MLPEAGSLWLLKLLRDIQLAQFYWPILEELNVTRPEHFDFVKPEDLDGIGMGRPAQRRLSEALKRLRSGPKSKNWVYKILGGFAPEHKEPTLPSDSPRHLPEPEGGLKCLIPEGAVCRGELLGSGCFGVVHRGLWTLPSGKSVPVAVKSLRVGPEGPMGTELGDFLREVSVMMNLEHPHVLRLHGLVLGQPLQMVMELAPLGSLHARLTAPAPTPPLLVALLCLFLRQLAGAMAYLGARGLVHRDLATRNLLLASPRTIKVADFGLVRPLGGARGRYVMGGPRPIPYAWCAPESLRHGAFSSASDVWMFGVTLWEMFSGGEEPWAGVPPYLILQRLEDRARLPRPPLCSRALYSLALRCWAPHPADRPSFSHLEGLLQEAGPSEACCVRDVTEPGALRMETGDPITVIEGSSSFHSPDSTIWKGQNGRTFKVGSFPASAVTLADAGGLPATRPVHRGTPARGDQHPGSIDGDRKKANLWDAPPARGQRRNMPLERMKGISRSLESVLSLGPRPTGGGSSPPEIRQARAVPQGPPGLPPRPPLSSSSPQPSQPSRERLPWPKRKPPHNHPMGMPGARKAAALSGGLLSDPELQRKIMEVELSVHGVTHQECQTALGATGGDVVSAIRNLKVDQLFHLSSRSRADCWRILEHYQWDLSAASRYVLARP

[12] = molecular target: T5, EKC/KEOPS complex subunit TP53RK (Homo sapiens, UniProt Q96S44)
T5 sequence (Q96S44 whole entry): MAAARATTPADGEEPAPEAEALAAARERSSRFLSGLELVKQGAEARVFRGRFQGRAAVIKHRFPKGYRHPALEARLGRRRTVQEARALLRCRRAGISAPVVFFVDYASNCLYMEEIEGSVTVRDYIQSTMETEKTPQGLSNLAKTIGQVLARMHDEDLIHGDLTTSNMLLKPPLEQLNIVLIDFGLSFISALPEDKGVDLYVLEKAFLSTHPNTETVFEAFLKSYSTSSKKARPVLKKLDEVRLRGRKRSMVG

[13] = molecular target: Non-receptor tyrosine-protein kinase TYK2 (Homo sapiens, UniProt P29597)

Chain of Ribosomal protein S6 kinase beta-1 (P23443 whole entry): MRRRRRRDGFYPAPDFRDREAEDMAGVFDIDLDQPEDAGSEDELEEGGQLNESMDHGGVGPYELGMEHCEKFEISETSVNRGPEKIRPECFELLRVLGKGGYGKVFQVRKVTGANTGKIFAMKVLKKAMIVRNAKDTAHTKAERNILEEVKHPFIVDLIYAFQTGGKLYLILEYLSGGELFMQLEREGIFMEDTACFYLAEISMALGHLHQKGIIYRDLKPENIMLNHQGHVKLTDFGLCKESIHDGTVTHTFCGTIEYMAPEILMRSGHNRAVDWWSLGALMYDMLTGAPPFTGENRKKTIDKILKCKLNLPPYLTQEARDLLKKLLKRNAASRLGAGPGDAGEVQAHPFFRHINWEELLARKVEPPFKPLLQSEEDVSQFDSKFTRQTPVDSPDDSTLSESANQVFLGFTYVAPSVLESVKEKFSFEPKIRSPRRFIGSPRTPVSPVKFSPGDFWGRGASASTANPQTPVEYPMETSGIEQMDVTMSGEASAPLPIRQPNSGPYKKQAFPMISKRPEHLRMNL
Chain of Ribosomal protein S6 kinase alpha-1 (Q15418 whole entry): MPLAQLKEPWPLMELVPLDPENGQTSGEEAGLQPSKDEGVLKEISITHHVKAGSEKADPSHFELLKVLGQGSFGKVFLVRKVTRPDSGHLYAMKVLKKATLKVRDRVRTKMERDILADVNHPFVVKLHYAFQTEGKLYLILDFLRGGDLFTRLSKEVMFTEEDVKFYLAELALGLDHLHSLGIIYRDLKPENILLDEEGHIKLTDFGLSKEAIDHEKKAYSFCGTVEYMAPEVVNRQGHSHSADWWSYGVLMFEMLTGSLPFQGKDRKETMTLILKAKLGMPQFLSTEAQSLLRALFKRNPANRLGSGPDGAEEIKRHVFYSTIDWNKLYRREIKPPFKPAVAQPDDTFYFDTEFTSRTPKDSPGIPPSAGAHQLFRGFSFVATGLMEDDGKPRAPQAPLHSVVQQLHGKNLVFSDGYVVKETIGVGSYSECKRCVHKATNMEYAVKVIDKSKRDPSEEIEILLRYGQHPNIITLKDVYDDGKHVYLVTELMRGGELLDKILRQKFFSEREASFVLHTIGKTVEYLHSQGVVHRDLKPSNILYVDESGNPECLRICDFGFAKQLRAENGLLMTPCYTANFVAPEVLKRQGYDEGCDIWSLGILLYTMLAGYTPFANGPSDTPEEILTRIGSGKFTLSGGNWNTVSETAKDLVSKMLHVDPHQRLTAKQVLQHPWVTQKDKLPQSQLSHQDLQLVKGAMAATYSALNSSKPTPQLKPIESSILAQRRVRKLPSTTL
Chain of STE20-like serine/threonine-protein kinase (Q9H2G2 whole entry): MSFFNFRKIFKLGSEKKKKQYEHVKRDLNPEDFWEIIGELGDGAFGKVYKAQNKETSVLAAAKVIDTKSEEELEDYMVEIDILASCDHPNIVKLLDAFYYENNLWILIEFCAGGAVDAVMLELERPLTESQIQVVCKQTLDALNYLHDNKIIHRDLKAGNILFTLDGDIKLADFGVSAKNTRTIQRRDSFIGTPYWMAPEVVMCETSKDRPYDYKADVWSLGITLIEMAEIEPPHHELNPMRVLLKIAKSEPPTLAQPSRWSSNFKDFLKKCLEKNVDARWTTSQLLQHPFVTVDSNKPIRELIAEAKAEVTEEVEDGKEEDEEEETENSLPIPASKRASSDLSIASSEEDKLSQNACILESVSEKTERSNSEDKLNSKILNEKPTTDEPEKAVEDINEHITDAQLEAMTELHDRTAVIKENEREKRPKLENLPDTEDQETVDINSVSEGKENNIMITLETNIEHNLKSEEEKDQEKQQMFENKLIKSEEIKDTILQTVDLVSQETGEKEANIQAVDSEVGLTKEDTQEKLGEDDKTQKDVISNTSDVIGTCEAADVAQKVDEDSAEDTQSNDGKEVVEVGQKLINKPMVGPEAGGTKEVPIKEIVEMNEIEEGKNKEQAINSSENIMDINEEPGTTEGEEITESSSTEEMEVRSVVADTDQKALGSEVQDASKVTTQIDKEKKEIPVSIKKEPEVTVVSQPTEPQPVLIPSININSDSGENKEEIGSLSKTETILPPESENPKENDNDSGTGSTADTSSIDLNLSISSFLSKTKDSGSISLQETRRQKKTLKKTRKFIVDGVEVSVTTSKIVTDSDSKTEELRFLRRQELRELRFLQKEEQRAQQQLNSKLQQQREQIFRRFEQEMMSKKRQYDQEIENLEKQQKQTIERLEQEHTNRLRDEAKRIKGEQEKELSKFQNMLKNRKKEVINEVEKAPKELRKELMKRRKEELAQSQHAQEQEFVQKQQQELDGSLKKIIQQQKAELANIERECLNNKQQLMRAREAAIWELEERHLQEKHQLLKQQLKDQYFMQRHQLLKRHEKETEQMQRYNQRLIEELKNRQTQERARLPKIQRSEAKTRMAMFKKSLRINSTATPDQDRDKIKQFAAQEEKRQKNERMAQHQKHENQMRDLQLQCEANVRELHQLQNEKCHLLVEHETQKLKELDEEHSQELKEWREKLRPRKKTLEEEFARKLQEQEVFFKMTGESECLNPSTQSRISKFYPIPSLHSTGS
Chain of Calcium/calmodulin-dependent protein kinase kinase 2 (Q96RR4 whole entry): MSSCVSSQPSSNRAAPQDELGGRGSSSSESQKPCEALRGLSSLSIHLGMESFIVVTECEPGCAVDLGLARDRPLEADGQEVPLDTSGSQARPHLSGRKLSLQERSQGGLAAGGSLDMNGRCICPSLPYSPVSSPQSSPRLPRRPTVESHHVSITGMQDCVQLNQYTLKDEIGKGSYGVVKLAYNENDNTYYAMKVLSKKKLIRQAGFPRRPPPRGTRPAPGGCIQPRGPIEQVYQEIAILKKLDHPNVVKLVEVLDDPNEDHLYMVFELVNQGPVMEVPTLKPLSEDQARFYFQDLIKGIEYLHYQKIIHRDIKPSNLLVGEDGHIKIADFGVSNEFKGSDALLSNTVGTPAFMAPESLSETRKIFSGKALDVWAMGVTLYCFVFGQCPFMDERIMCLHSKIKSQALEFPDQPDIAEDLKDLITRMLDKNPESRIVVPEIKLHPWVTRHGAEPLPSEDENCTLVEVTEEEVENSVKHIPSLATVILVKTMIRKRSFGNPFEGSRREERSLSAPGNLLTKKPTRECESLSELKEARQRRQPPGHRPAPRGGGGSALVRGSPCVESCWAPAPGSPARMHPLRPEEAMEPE
Chain of Aurora kinase B (Q96GD4 whole entry): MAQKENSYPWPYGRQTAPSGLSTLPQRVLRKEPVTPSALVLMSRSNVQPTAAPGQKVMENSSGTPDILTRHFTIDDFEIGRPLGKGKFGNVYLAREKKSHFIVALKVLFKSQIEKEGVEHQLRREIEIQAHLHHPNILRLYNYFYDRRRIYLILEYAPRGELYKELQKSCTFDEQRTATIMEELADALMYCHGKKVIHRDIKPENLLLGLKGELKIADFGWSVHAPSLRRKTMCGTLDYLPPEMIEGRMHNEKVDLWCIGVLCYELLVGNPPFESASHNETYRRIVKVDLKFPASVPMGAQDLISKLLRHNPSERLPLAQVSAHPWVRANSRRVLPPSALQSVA
Chain of Mitogen-activated protein kinase kinase kinase kinase 5 (Q9Y4K4 whole entry): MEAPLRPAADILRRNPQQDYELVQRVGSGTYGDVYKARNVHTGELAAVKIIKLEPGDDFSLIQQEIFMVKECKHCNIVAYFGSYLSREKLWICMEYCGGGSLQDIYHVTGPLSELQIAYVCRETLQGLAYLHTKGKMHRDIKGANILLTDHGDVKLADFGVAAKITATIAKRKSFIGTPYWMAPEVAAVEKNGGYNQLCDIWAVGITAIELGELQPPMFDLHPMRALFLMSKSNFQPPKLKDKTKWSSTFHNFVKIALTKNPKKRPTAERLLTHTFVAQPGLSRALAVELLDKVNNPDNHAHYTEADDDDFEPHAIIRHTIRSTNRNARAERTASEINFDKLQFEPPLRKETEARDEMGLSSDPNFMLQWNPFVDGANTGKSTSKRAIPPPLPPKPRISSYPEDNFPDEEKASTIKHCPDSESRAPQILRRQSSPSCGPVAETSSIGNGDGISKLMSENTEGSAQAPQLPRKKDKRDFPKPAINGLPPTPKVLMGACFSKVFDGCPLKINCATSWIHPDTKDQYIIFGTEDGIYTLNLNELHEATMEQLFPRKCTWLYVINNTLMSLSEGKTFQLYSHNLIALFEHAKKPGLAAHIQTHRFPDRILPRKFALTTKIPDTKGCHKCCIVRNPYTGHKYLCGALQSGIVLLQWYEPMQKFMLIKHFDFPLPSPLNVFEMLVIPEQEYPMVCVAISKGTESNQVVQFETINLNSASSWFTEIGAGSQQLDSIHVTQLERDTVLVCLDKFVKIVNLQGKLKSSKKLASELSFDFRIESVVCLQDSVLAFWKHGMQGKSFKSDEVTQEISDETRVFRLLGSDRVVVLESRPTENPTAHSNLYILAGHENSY
Chain of Tyrosine-protein kinase Fyn (P06241 whole entry): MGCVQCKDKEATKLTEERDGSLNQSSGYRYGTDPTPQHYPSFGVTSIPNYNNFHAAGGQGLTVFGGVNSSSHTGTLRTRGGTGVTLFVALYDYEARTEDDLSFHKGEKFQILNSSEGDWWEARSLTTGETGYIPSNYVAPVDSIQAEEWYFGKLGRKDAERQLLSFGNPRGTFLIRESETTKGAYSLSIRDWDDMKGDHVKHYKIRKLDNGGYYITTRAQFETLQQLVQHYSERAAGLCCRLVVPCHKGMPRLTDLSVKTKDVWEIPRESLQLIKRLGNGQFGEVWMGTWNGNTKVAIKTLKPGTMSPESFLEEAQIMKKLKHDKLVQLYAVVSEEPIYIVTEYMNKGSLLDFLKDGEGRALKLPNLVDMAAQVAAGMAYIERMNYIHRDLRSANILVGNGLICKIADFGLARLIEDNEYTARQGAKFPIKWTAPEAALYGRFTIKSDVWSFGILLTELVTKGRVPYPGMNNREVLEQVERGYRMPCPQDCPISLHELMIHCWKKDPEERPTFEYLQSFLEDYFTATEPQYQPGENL

| Structure (SMILES) | Kd [1] | Kd (Aurora kinase B) | Kd [2] | Kd (Ephrin type-A receptor 4) | Kd [3] | Kd [4] | Kd [5] | Kd [6] | Kd [7] | Kd [8] | Kd [9] | Kd (ADP/ATP translocase 2) | Kd [10] | Kd [11] | Kd [12] | Kd [13] |
| --- | --- | --- | --- | --- | --- | --- | --- | --- | --- | --- | --- | --- | --- | --- | --- | --- |
| O=C(Nc1ccc(OC(F)(F)F)cc1)c1sccc1NCc1ccnc2ccccc12 [OSI-930] | > 30 µM (inactive) | > 30 µM (inactive) | > 30 µM (inactive) | > 30 µM (inactive) | > 30 µM (inactive) | > 30 µM (inactive) | > 30 µM (inactive) | > 30 µM (inactive) | > 30 µM (inactive) | > 30 µM (inactive) | > 30 µM (inactive) | > 30 µM (inactive) | > 30 µM (inactive) | > 30 µM (inactive) | > 30 µM (inactive) | > 30 µM (inactive) |
| CC[C@@](C)(Nc1ccnc(-c2c[nH]c3ncccc23)n1)C(=O)NCC(F)(F)F [DECERNOTINIB] | > 30 µM (inactive) | > 30 µM (inactive) | > 30 µM (inactive) | > 30 µM (inactive) | > 30 µM (inactive) | > 30 µM (inactive) | > 30 µM (inactive) | > 30 µM (inactive) | > 30 µM (inactive) | > 30 µM (inactive) | > 30 µM (inactive) | > 30 µM (inactive) | 0.058 µM (active) | 0.046 µM | 2.83 µM (active) | – |
| NC[C@@](O)(c1ccc(Cl)cc1)c1ccc(-c2cn[nH]c2)cc1 [AT-13148] | > 30 µM (inactive) | > 30 µM (inactive) | > 30 µM (inactive) | > 30 µM (inactive) | > 30 µM (inactive) | > 30 µM (inactive) | – | > 30 µM (inactive) | > 30 µM (inactive) | > 30 µM (inactive) | > 30 µM (inactive) | > 30 µM (inactive) | > 30 µM (inactive) | > 30 µM (inactive) | > 30 µM (inactive) | > 30 µM (inactive) |
| COc1cc2ncnc(Nc3ccc(F)c(Cl)c3)c2cc1NC(=O)/C=C/CN1CCCCC1 [DACOMITINIB ANHYDROUS] | – | > 30 µM (inactive) | > 30 µM (inactive) | > 30 µM (inactive) | > 30 µM (inactive) | > 30 µM (inactive) | > 30 µM (inactive) | > 30 µM (inactive) | > 30 µM (inactive) | > 30 µM (inactive) | > 30 µM (inactive) | > 30 µM (inactive) | > 30 µM (inactive) | > 30 µM (inactive) | > 30 µM (inactive) | > 30 µM (inactive) |
| CCc1nc(C(N)=O)c(Nc2ccc(N3CCC(N4CCN(C)CC4)CC3)c(OC)c2)nc1NC1CCOCC1 [GILTERITINIB] | – | > 30 µM (inactive) | 2.65 µM (active) | > 30 µM (inactive) | > 30 µM (inactive) | 3.12 µM (active) | > 30 µM (inactive) | 2.84 µM (active) | 3.44 µM (active) | > 30 µM (inactive) | > 30 µM (inactive) | 0.451 µM (active) | 0.068 µM (active) | 0.039 µM (active) | 2.72 µM (active) | > 30 µM (inactive) |
| FC(F)(F)c1ccc(CNc2ccc(Cc3c[nH]c4ncc(Cl)cc34)cn2)cn1 [PEXIDARTINIB] | – | > 30 µM (inactive) | > 30 µM (inactive) | > 30 µM (inactive) | > 30 µM (inactive) | > 30 µM (inactive) | > 30 µM (inactive) | > 30 µM (inactive) | > 30 µM (inactive) | > 30 µM (inactive) | > 30 µM (inactive) | > 30 µM (inactive) | > 30 µM (inactive) | > 30 µM (inactive) | > 30 µM (inactive) | > 30 µM (inactive) |
| CCN1CCN(Cc2ccc(Nc3ncc(F)c(-c4cc(F)c5nc(C)n(C(C)C)c5c4)n3)nc2)CC1 [ABEMACICLIB] | – | > 30 µM (inactive) | 2.6 µM (active) | > 30 µM (inactive) | > 30 µM (inactive) | > 30 µM (inactive) | > 30 µM (inactive) | > 30 µM (inactive) | > 30 µM (inactive) | > 30 µM (inactive) | > 30 µM (inactive) | > 30 µM (inactive) | > 30 µM (inactive) | > 30 µM (inactive) | > 30 µM (inactive) | > 30 µM (inactive) |
